From EP3546478A1, “NEW PEPTIDE DERIVATIVES OF PLATELET DERIVED GROWTH FACTOR (PDGF), A METHOD FOR THEIR PREPARATION, PHARMACEUTICAL COMPOSITIONS CONTAINING THEM AND APPLICATION OF THESE COMPOSITIONS” (Uniwersytet Gdanski, priority 2018, dated 2019)
Positions of bridges follow the written chain, without caps; N, C: chain ends. Residues, ends and D or L forms follow the SMILES beside them. Chains are numbered I, II in the order given. No end group written: not given here.

Legend:
HaCaT keratinocytes = format: cell-based, human
Description: (§1) The effect of PDGF derivatives (PDGF1, […]1, PDGF2, PGDF3, PDGF2_NE, PDGF2-HTT) on the proliferation of immortalized human 46BR.1N skin fibroblast cells, HaCaT skin keratinocytes (for each peptide 4 experimental cycles for HaCaT and 46BR.1N cells) and primary skin fibroblasts (for each peptide 4 experimental cycles, usingcells isolated from 4 patients) was investigated. Their cytotoxicity to these cells was also checked. The cells were incubated with peptides previously dissolved in double-distilled, sterile water. Proliferation tests (XTT test) were performed at the following concentrations: 0.01, 0.1, 1, 10, 25, 50, 100 and 150 μg / ml. Cytotoxicity tests (LDH) were performed at concentrations of 50, 100 and 150 μg / ml.

46BR.1N fibroblasts = format: cell-based, human; details: 0.1, 1 and 10 µg / ml after 48h and 72h
Description: as §1

primary skin fibroblasts = test: XTT proliferation test; format: cell-based, human
Description: as §1

[1] = system: human primary dermal fibroblasts; test: Chemotaxis through culture inserts, calcein fluorometry; format: cell-based; details: 1 µg / ml, 24 hours of incubation
Description: The effect of the compound PDGF2 compound at a concentration of 1 µg / ml on the chemotaxis of HaCaT keratinocytes, and the effect of PDGF2 and PDGF3 at a concentration of 1 µg / ml on the chemotaxis of primary fibroblasts, were investigated. Cells were "starved" in serum-free medium for 24 hours before the experiment. They were then seeded in serum-free medium in culture inserts (Grainer bio one, 8 µm) placed in a 24-well plate. Serum-free medium containing PDGF2 or PDGF3 was added to the wells. Controls in the test were: serum free medium and medium containing 10% FBS. After 24 hours of incubation, the cells were stained with calcein. Cells that migrated through the insert membrane were then detached with trypsin and a fluorometric measurement was performed (excitation wavelength 485, emission wavelength 520 nm).

dendritic cells = format: cell-based, human
Description: Tests were conducted on human peripheral blood mononuclear cells (PBMC), isolated from "buffy coats" using a ficoll density gradient (histopaque, Sigma). Following two wash steps (in PBS), erythrocyte lysis and cell counting (cell counter, Bio-Rad), the PBMCs were seeded onto a 24-well culture plate at a density of 1 mln cells/1 ml of RPMI 1640 (P/S, 10% FBS)/well. Thecells were then allowed to adapt to the culture conditions for the next 24h. After cell resting, PDGF2 was added to the wells in a final concentration of 1.0 µg/ml, and the cells were incubated for the next 48h under appropriate conditions (37°C, 5% CO2). The untreated cells constituted a negative control, whereas cells stimulated with LPS (1 µg/ml) and PHA (2,5 µg/ml) were a positive control. After incubation, the PBMCs were collected, washed with PBS, counted and prepared for flow cytometry analysis under the following conditions: 10^4 cells/ 100µl were stained with monoclonal, fluorochrome-stained antibodies (anti-CD3, CD4, CD8, CD16, CD56, CD25, CD69, CD71, HLA-DR, CD11c, CD80, CD83). Following 30 min of incubation at RT in the dark, the cells were analyzed using a flow cytometer (LSRFortessa, BD).
An analysis of peptide impact on the activity of immune cells was performed on human PBMCs. These cells were incubated with PDGF2 (1.0 ug/ml) for 48h and the effects of stimulation were evaluated by flow cytometry. […]

[2] = XTT test, 0.01 to 150 µg / ml tested, result in words

Compound	increase in proliferation relative to control (HaCaT keratinocytes; 0.1, 1, 10 and 25 µg / ml after 48h, 0.1, 1, 10, 25, 50, 100 and 150 µg / ml after 72h)	inhibition of proliferation (HaCaT keratinocytes; [2])	increase in proliferation relative to control (46BR.1N fibroblasts)	increase in proliferation relative to control (primary skin fibroblasts; 1, 10, 25 and 50 µg / ml after 48h and 72h)	inhibition of proliferation (primary skin fibroblasts; [2])	effect on chemotaxis [1]	activation of dendritic cells (CD80, CD83) (dendritic cells)
CC[C@H](C)[C@H](NC(=O)[C@H](CC(C)C)NC(=O)[C@@H](N)CCCNC(=N)N)C(=O)N[C@@H](CC(=O)O)C(=O)N[C@@H](CCCNC(=N)N)C(=O)N[C@H](C(=O)N[C@@H](CC(N)=O)C(=O)N[C@@H](C)C(=O)N[C@@H](CC(N)=O)C(=O)N[C@@H](Cc1ccccc1)C(=O)N[C@@H](CC(C)C)C(=O)NCCCC[C@H](NC(=O)[C@H](CCCNC(=N)N)NC(C)=O)C(=O)N[C@H](C(=O)N[C@@H](CCC(=O)O)C(=O)N[C@H](C(=O)N[C@H](C(=O)N[C@@H](CCCNC(=N)N)C(=O)N[C@@H](CCCCN)C(=O)N[C@@H](CCCCN)C(=O)N1CCC[C@H]1C(=O)N[C@H](C(=O)N[C@@H](Cc1ccccc1)C(N)=O)[C@@H](C)CC)C(C)C)[C@@H](C)CC)[C@@H](C)CC)[C@@H](C)O [PDGF3] (I: Ac-RKIEIVRKKPIF-NH2 / II: H-RLIDRTNANFL; amide I:2-II:C)	20-120%	does not inhibit the proliferation	20-40%	10-60%	does not inhibit the proliferation	inhibit the chemotaxis	–
RLIDRTNANFL-NH2 [PDGF2, R^1L^2I^3D^4R^5T^6N^7A^8N^9F^10L^11-NH2]	–	–	–	–	–	–	not activated
